In paper PMC7044129, “Spexin and a Novel Cichlid-Specific Spexin Paralog Both Inhibit FSH and LH Through a Specific Galanin Receptor (Galr2b) in Tilapia” (Frontiers in Endocrinology, 2020):
No end group written: not given here.

What was measured:
[1] = system: Tilapia D2 dopamine receptor; details: COS7 cells, SRE-Luc and Gqi5
Description: (§1) EC50 values were calculated from dose response curves by means of computerized non-linear curve fitting on baseline-corrected (control) values using Prism version 6 software (GraphPad).
(1 picture or pasted object on this page, not shown here)

spexin expression = details: spotted scat, in vitro; cited from earlier work
From the text: (§2) Spexin has been implicated in regulating the hypothalamic-pituitary-gonad (HPG) axis in some fish species. […] The first report on fish spexin in zebrafish and goldfish identified high and dynamic expression in the brain throughout the reproductive stages ([10]). […] Ovariectomized goldfish had increased hypothalamic spexin e ...

tilapia Galr2a = tilapia Galr2a (Oreochromis niloticus, UniProt A0A650AWG9); assay type: cell-based, Nile tilapia (Oreochromis niloticus); details: Gqi pathway (chimeric Gqi5 with SRE-luc, Gαi readout), COS7 cells, 6 h stimulation after 16 h serum starvation, mean ± SEM, minimum three independent transfections, triplicate wells
Chain of tilapia Galr2a (A0A650AWG9 entry or part of it): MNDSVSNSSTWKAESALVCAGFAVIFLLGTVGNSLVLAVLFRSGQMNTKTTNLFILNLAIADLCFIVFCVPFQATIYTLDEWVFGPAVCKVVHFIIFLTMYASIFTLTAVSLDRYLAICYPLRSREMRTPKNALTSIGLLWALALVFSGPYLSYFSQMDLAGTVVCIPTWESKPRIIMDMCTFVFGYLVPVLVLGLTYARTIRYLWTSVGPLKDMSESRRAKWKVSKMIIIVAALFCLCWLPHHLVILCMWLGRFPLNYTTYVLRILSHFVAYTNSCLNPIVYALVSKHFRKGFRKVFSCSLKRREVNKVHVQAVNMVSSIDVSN
Description: as §1

GALR2 [2] = details: cited from earlier work
From the text: (§3) The galanergic neurotransmission system is one of the newest described signaling systems. […] Three different types of galanin receptors have been described so far in mammals: galanin receptor 1, 2, and 3 (GALR1, GALR2, and GALR3) ([14]). All of them are members of the G protein-coupled receptor (GPCR) family and act through stimulation of various seco ...

GALR3 = details: cited from earlier work
From the text: as §3

Galr2a = details: cited from earlier work
From the text: as §3

Galr2b = details: cited from earlier work
From the text: as §3

LH release = details: goldfish; cited from earlier work
From the text: as §2

[3] = system: goldfish pituitary cultures; details: cited from earlier work
From the text: as §2

[4] = system: GnIH, GnRH-III, GpHα and FSHβ expression; details: sole; cited from earlier work
From the text: Spexin mRNA expression levels may also be correlated with reproductive development. Increases in LH and FSH mRNA expression is seasonal and corresponds to gonadal development ([50], [51]).

[5] = system: agouti-related peptide (AgRP) expression; details: zebrafish; cited from earlier work
From the text: (§4) Spexin plays a role in feeding behavior and metabolism in fish and mammals [reviewed in ([3])]. In the orange-spotted grouper ([11]), half-smooth tongue sole ([46]), and spotted scat ([46]), starvation increased Spx1 expression. […] This effect was also observe ...

[6] = system: appetite stimulants and anorexigenic factors in the brain; details: goldfish brain, central administration, cited from earlier work
From the text: as §4

[7] = system: feeding behavior induced by NPY and orexin; details: intracerebroventricular injection; no reference printed at the sentence (preceding sentence ref 2); cited from earlier work
From the text: as §4

goldfish = details: injection; cited from earlier work
From the text: as §4

GalR2 [8] = details: cited from earlier work
From the text: Spexin mediates its effects by activating an inhibitory G-protein (Gαi) via galanin receptor (GalR) 2/3. Like the kisspeptin, galanin, and spexin peptides, the kisspeptin and galanin receptors are related. Ancestral forms of KissR, GalR1, and GalR2/3 were identified on different VACs with 1R and 2R expanding each clade, giving rise to four KissR (KissR1, 3, 2, 4), two GalR1 (1a, 1b), two GalR2 (2a, 2b) and GalR3 paralogs ([15]). Our phylogenetic analysis supports that of Kim et al. ([15]), showing that GalRs are divided into two major clades, namely GalR1 and GalR2/3, with KissRs forming a dis ...

adrenocortical cell = details: mammals; cited from earlier work
From the text: (§5) Spexin (SPX1; also termed neuropeptide Q) was identified first by computational methods in humans ([1]), and then also by chemical methods in goldfish ([2]). These computational methods have been attempted mostly on the basis of the characteristics of the prohormones from which active neuropeptides are processed. The mature peptide sequence contains 14 amino acids that are flanked by monobasic and dibasic proteolytic cleavage sites. […] A paralog o ...

stomach contraction = details: mammals; cited from earlier work
From the text: as §5

[9] = system: hypothalamic spexin expression; details: ovariectomized goldfish, estrogen replacement; cited from earlier work
From the text: as §2

[10] = system: Spx1 levels and expression; details: cited from earlier work
From the text: as §4

Compound: NCCc1ccc(O)c(O)c1 [dopamine]
- luciferase activity via tilapia D2 receptor with Gqi5 (in words) [1]: dose-dependent increase in luciferase activity

Compound: C[C@]12CC[C@@H]3c4ccc(O)cc4CC[C@H]3[C@@H]1CC[C@@H]2O [estradiol]
- spexin expression (spexin expression): decreased spexin expression in a dose-dependent manner in vitro

Compound: GWTLNSAGYLLGPHAVGNHRSFSNKNGLTS-NH2 [Galanin]
- EC50 (tilapia Galr2a): 0.0001 ± 5.6 log nM

Compound: Spexin: spexin of cited literature; 14 amino acid peptide hormone, species varies
- functional agonism at human GALR2 (GALR2 [2]): functional agonist
- functional agonism at human GALR3 (GALR3): functional agonist
- functional agonism at zebrafish Galr2a (Galr2a): functional agonist
- functional agonism at zebrafish Galr2b (Galr2b): functional agonist
- LH release in vivo (LH release): inhibited LH release
- LH release in pituitary cultures [3]: inhibited LH release
- GnIH and GnRH-III expression [4]: increasing gonadotropin inhibitory hormone (GnIH) and GnRH-III expression
- GpHα and FSHβ expression [4]: decreasing GpHα and FSHβ expression
- AgRP expression [5]: suppressed agouti-related peptide (AgRP) expression
- expression of anorexigenic factors ([6]; POMC, CART, CCK, MCH, CRH): increased expression of anorexigenic factors
- expression of appetite stimulants [6]: decrease in expression of appetite stimulants (NPY, AgRP, and apelin)
- NPY- and orexin-induced feeding [7]: inhibited feeding behavior induced by NPY and orexin
- feeding behavior (goldfish): decreased surface feeding and increased food rejection
- dissociation / receptor internalization at GalR2 (GalR2 [8]): quickly dissociated after G-protein signaling
- adrenocortical cell proliferation (adrenocortical cell): inhibiting adrenocortical cell proliferation
- stomach contraction (stomach contraction): inducing stomach contraction

Compound: estrogen
- hypothalamic spexin expression [9]: returned expression to basal levels

Compound: insulin: insulin (cited study on spexin regulation)
- circulating Spx1 and brain Spx1 expression [10]: increase circulating levels of Spx1 and its expression in the telencephalon, hypothalamus, and optic tectum
